In patent US20080311656A1, “Meiosis arrest in oocytes in vitro” (Novo Nordisk A/S, priority 2002, published 2008):
“Also recorded” adds a separate entry of the source.

What was measured:
[1] = tested on: isolated oocytes; details: rodents; cited from earlier work
[2] = tested on: polar body extruded oocytes; experiment: Confocal laser microscopy for microfilaments and chromosome analysis; assay type: cell-based, human
Experimental: For localization of microfilaments, 39 polar body extruded oocytes (25 oocytes 48 hours after maturation in control medium and 14 oocytes after inhibitor removal) were fixed with 2.5% glutaraldehyde in cacodylate buffer for at least 2 hours, washed with PBS/1% BSA, placed into 0.1% Triton X-100 for 5 min and rinsed again with PBS. Afterwards, oocytes were placed into Texas red-labeled phalloidin staining f-actin diluted 1:40 PBS for f-actin and Pico green 1:2000 PBS for DNA staining.

[3] = tested on: Human oocytes (COCs); experiment: Meiosis arrest (nuclear maturation stage GV/GVBD/PB) of COCs cultured with DDMP; assay type: cell-based; details: for oocytes still arrested at the GV-stage: 72 hours in DDMP
Experimental: (§1) Patients included in this study were undergoing fertility treatment and were primed with variable doses of gonadotropins while being carefully monitored using serum hormone and vaginal ultrasound monitoring (Human Reproduction 7 (1992), 49 et seq.). Collection of oocytes cumulus complexes (COCs) from different follicle sizes was performed as follows: 1°) during laparoscopic surgery, 2°) aspirated from patients with stimulated ovaries undergoing follicle reduction before intrauterine insemination (to avoid multiple gestation due to multiple ovulation) (Albano et al, 2001) or 3°) during ovum pick up after having aspirated the larger follicles (>15 mm) destinated for IVF treatment (Human Reproduction 7 (1992), 49 et seq.). Basically, these aspirations yielded two types of COC: a first group that had never been exposed to LH activity (pre-hCG) and a second group of follicles 36 h after an exposure to hCG (injected) or endogenous LH (spontaneous LH peak). When possible, follicle diameters were recorded by vaginal ultrasound measurement. COCs used in this study were retrieved from follicles with diameters between 6 and 14 mm.
Human oocytes aspiration was performed by ultrasound-guided transvaginal follicle aspiration using a single lumen needle (Cook, K-OPS-1230-VUB, Switzerland AG) after paracervical infiltration with a local anesthetic. The aspiration pressure used was reduced from the usual 100 mmHg for recovery of mature oocytes to 60 mmHg. Follicles were flushed using HEPES-buffered Earle's medium at least three times.
(§2) At the time of oocyte retrieval only the COCs classified as I or II were placed in culture.
Twenty-four hours later, oocyte stages were recorded and oocytes showing a clear polar body extrusion were removed from culture. After 48 hours, all oocytes were assessed and GV, GVBD and polar body extruded ones were recorded.
(§3) The basal medium used for oocyte culture was D-MEM (D-5280, Life Technologies, Merelbeke, Belgium) with 2 mM Glutamax-1, NaHCO3 (2 g/L) supplemented with 10 mIU/ml FSH (Gonal-F®, kindly donated by Ares Serono, Geneva, Switzerland), 100 ng/ml IGF-I (R&D, UK), 5 ng/ml insulin, 5 ng/ml selenium, 5 μg/ml transferrin (Life technologies, Merelbeke, Belgium) and 0.1% human serum albumin (CAF-DCF, Brussels, Belgium). 17β-E2 (Sigma, Bornem, Belgium) was diluted in ethanol and added to oil to reach a final concentration of 1 μg/ml in the 10 μl medium droplets underneath (this concentration was measured using specific radioimmunoassay). Microdroplets of 10 μl medium, were covered with 2 ml of oil. A refreshment of […] conditioned medium was performed each 24 hours. All cultures were carried out at 37° C. in humidified atmosphere in an incubator gassed with 5% CO2 in air.
(§4) DDMP was added at a 10 μM final concentration (0.1% DMSO). Directly after aspiration, single COCs were washed in flushing medium (D-MEM with HEPES) and placed into […] droplets under oil. COCs were randomised over two culture conditions: with and without DDMP. Oocytes cultured with DDMP for 24 hours, 48 hours and 72 hours were studied for reversal of meiosis arrest by washing out the inhibitor. Reversal of PDE 3 inhibition was performed by mechanical denudation of the remaining somatic cells and placing the oocytes in the conditioned medium for an additional 24-30 h.
(§5) Evaluation of cumulus morphology expansion in culture related to follicle treatment, resumption of maturation, kinetics of GVBD and polar body extrusion were analysed using the χ^2test and Fisher's exact test for comparison between control and DDMP treated groups. Statistical significance was considered when P<0.05.

[4] = tested on: Human oocytes (COCs); experiment: Light and electron microscopy of oocytes arrested by DDMP; assay type: cell-based
Experimental: During evaluation at 24 hours and 48 hours culture, part of the oocytes with and without DDMP were fixed for EM analysis.
A total of 48 oocytes (4 at time of retrieval, 21 after 24 hours, 20 after 48 hours and 3 after 72 hours culture) were fixed in glutaraldehyde 2.5% in cacodylate buffer at pH 7.3 for at least 2 hours at 4° C. at time 0 h, 24 hours and 48 hours of maturation. All oocytes were embedded individually. Afterwards, they were postfixed in OsO4 1% in H2O for 30 min, stained with uranyl acetate 2% in veronal buffer for 60 min, dehydrated through graded alcohols, embedded in SPURR (Taab; Bodson, Liège, Belgium) and left to polymerize overnight at 70° C.
Semithin sections of 0.5 μm and ultrathin sections of 75 nm were made at approximately 30 levels (range 15-35). The semithin sections were mounted on glass slides and stained with toluidine blue for light microscopical guidance. […]
In order to analyse the effect of PDE 3 inhibition on nuclear and cytoplasm organization, ultrastructural observation was performed at the different culture times in oocytes arrested or not by DDMP. The oocytes analyzed did originate from follicles with diameter between 8-12 mm.

[5] = tested on: cumulus-corona cells of COCs; experiment: Cumulus cell expansion (COC types I-IV) during culture in the presence of DDMP; assay type: cell-based, human
Experimental: as §1
The COCs were evaluated immediately after aspiration and after 24 hours and 48 hours culture and classified as follows: type (I), compact mass of 3-5 layers of granulosa cells; type (II), expanded distal layers of granulosa cells (cumulus), but a compact proximal granulosa cell layer; type (III), expanded distal (cumulus) and proximal (corona cells) layers of granulosa cells; and type (IV) partially denuded oocytes due to expanded granulosa cells.
as §2, §3, §4, §5

[6] = tested on: Human oocytes arrested at GV-stage; experiment: Reversal of meiosis arrest after washing out the inhibitor; assay type: cell-based
Experimental: DDMP was added at a 10 μM final concentration (0.1% DMSO). Directly after aspiration, single COCs were washed in flushing medium (D-MEM with HEPES) and placed into […] droplets under oil. COCs were randomised over two culture conditions: with and without DDMP. Oocytes cultured with DDMP for 24 hours, 48 hours and 72 hours were studied for reversal of meiosis arrest by washing out the inhibitor. […]
as §5

[7] = post-hCG COCs, 24 hours culture in DDMP 10 μM
[8] = pre-hCG COCs, 24 hours culture in DDMP 10 μM
[9] = inhibitor removal day 2 (48 hours in DDMP), post-hCG, 11 oocytes
[10] = inhibitor removal day 2 (48 hours in DDMP), pre-hCG, 11 oocytes
[11] = inhibitor removal day 3 (72 hours in DDMP), post-hCG, 10 oocytes
[12] = inhibitor removal day 3 (72 hours in DDMP), pre-hCG, 13 oocytes

SMILES: COc1cc2cc(C3=NNC(=O)CC3C)sc2cc1OC (stereo not shown) [DDMP, 4,5-dihydro-6-(5,6-dimethoxybenzo[b]thien-2-yl)-5-methyl-3(2H)-pyridazinone]
- reversibility of blocking effects [1]: fully reversible
- number of oocytes presenting the M II plate 24-30 hours after inhibitor removal ([2]; 3 out of 3 pre-hCG and 9 out of 11 post-hCG): Twelve
- number of oocytes with nuclei forming a clump of chromosomes at place of metaphase plate ([2]; 24-30 hours after inhibitor removal): Two
- M II oocytes with well-aligned chromosomes positioned perpendicular to the oolema ([2]; 24-30 hours after inhibitor removal, control 80.0%): 83.3%
- time up to which nuclear arrest could be held on ([3]; DDMP 10 μM): up to 72 hours
- time for which resumption of meiosis was blocked / meiotic arrest in GV maintained ([3]; DDMP 10 μM, COCs from antral follicles): at least 48 hours
- oocytes remaining at GV-stage ([3]; post-hCG COCs (n=42), 24 hours, DDMP 10 μM, control 22.5%): 92.9%
- COCs classified type II at retrieval that remained arrested at the GV-stage ([3]; post-hCG COCs of type II at retrieval, 48 hours culture with DDMP): 77.6%
- oocytes that extruded a visible polar body (PB) ([3]; post-hCG COCs, 24 hours, DDMP 10 μM, control 10.0%): 2.4%
- oocytes at the GV-stage ([3]; post-hCG COCs, 48 hours, DDMP 10 μM, control 6.0%): 83.3%
- oocytes at GVBD ([3]; post-hCG COCs, 48 hours, DDMP 10 μM, control 12.1%): 8.3%
- oocytes at PB ([3]; post-hCG COCs, 48 hours, DDMP 10 μM, control 81.8%): 5.6%
- oocytes still arrested at the GV-stage ([3]; post-hCG, 10 out of 15): 66.6%
- oocytes remaining at GV-stage ([3]; pre-hCG COCs (n=39), 24 hours, DDMP 10 μM, control 24.3%): all oocytes remained at GV-stage
- oocytes at GVBD ([3]; pre-hCG COCs, 48 hours, DDMP 10 μM, control 12.9%): 5.5%
- oocytes remaining at GV-stage ([3]; pre-hCG COCs, 48 hours, DDMP 10 μM, control 19.3%): 88.9%
- oocytes at PB ([3]; pre-hCG COCs, 48 hours, DDMP 10 μM, control 64.5%): 2.8%
- oocytes still arrested at the GV-stage ([3]; pre-hCG, 16 out of 19): 84.2%
- ultrastructural morphological signs of oocyte degeneration ([4]; DDMP 10 μM, at least 48 hours culture): without ultrastructural morphological signs of oocyte degeneration
- morphological aspect of COC (degeneration) ([4]; arrested in vitro for 72 hours in presence of DDMP (FIG. 11)): degenerative aspect
- influence on expansion and mucification pattern of COC / loss of coupling between somatic cells and oocyte ([5]; DDMP 10 μM versus control medium, before and during culture): not modified; also recorded: no influence
- proportion of COCs classified type I ([5]; post-hCG COCs of the DDMP group, at retrieval (0 hour, baseline)): 48.8%
- oocytes that had lost connection with cumulus cells (type IV) [5, 7]: 7.1%
- proportion of COCs classified type I [5, 7]: 4.7%
- proportion of COCs classified type II [5, 7]: 57.1%
- proportion of COCs classified type III [5, 7]: 30.9%
- oocytes that had lost connections with the somatic cells (type IV) ([5]; post-hCG COCs, 48 hours culture in DDMP 10 μM): 62.1%
- proportion of COCs classified type I ([5]; pre-hCG COCs of the DDMP group, at retrieval (0 hour, baseline)): 74.4%
- proportion of COCs classified type I [5, 8]: 25.6%
- proportion of COCs classified type II [5, 8]: 56.4%
- proportion of COCs classified type III [5, 8]: 15.4%
- oocytes that had lost their connections with the cumulus cells (type IV) ([5]; pre-hCG COCs, 48 hours culture in DDMP 10 μM): 22.2%
- number of oocytes that progressed to GVBD after inhibitor wash-out ([6]; 48 hours in DDMP, post-hCG, 11 oocytes, 24-30 h in control medium): 11
- number of oocytes that progressed to GVBD after inhibitor wash-out ([6]; 48 hours in DDMP, pre-hCG, 11 oocytes, 24-30 h in control medium): 4
- number of oocytes that progressed to GVBD after inhibitor wash-out ([6]; 72 hours in DDMP, pre-hCG, 13 oocytes, 24 to 30 hours in conditioned medium): 7
- PB (%) 24-30 hours after DDMP removal [6, 9]: 54%
- number of oocytes at GVBD (arrested at this stage) 24-30 hours after DDMP removal [6, 9]: 5
- number of oocytes at PB 24-30 hours after DDMP removal [6, 9]: 6
- PB (%) 24-30 hours after DDMP removal [6, 10]: 27%
- number of oocytes at GV 24-30 hours after DDMP removal [6, 10]: 7
- number of oocytes at GVBD (arrested at this stage) 24-30 hours after DDMP removal [6, 10]: 1
- number of oocytes at PB 24-30 hours after DDMP removal [6, 10]: 3
- PB (%) 24-30 hours after DDMP removal [6, 11]: 100%
- number of oocytes at PB 24-30 hours after DDMP removal [6, 11]: 10
- PB (%) 24-30 hours after DDMP removal [6, 12]: 46%
- number of oocytes at GV 24-30 hours after DDMP removal [6, 12]: 6
- number of oocytes at GVBD (arrested at this stage) 24-30 hours after DDMP removal [6, 12]: 1
- number of oocytes at PB 24-30 hours after DDMP removal [6, 12]: 6
- resumption of meiosis after inhibitor removal ([6]; oocytes arrested with DDMP 10 μM): capable of resuming meiosis within the normal time frame
